pEC50: −log10 of the molar value.

Consider 96 compounds from PubChem BioAssay AID2253 (Southern Research Specialized Biocontainment Screening …, 2010).

This test concerns THP-1 viability, CellTiter-Glo luminescence, 72 h. The test is described as follows: THP-1 cell cytotoxicity, dose response, cytotoxicity control for Salmonella PhoP regulon inhibitors, S. typhimurium screen hits (AID 2253).
As to `Cc1ccc(S(=O)(=O)N(CC(=O)N=Nc2c(O)[nH]c3ccccc23)c2ccc(C)c(C)c2)cc1`, the negative-log EC50 (pEC50) is 4.91. As for `CCCCCCCCCCCCCCCC[n+]1cccc(C(=O)N(CC)CC)c1`, the figure is 6.19; as for `Cc1ccc(/C=C2\SC(=S)N(Cc3ccccc3)C2=O)o1`, 4.61; as for `Nc1cc2nsnc2cc1Br`, 5.13. Next, `CC1=NN(c2ccc(Cl)cc2)C(=O)C1C(c1cccc(O)c1)c1c(C)[nH]n(-c2ccc(Cl)cc2)c1=O` (stereo unspecified): 4.45; `Oc1ccc(/C=N/Nc2ncc(Br)cn2)c(O)c1`: 5.51. Regarding `Cc1[nH]n(-c2ncc(-c3ccc(Cl)cc3)s2)c(=O)c1C(c1ccc(Cl)cc1)C(C#N)C#N` (stereo unspecified), the pEC50 was 4.35. With `Cc1cc(/C=N/NC(N)=S)c(C)n1-c1ccc(Cl)c(Cl)c1`, the negative logarithm of the EC50 (pEC50) was 4.70. Turning to `O=C(NNc1nc(-c2ccccc2)cs1)c1ccccc1`, the pEC50 was 4.58. As to `O=C(/C=C/c1ccco1)NC(=S)Nc1ccc(N2CCCC2)cc1`, the pEC50 was 5.02. On to `C=C1c2c(Cl)ccc(O)c2C(O)=C2C(=O)[C@]3(O)C(O)=C(C(N)=O)C(=O)[C@@H](N(C)C)[C@@H]3[C@@H](O)C12` (stereo partly specified), for which the pEC50 was 4.89. With `CC(C(=O)NC1CCS(=O)(=O)C1)N1C(=O)/C(=C/c2ccc(Cl)cc2)SC1=S` (stereo unspecified), the pEC50 was 4.31. As for `NC1=NC[C@H](c2ccccc2)N1CCCCC1CCCCC1`, the pEC50 is 5.30. In the case of `COc1ccc(C(C[N+](=O)[O-])C2(c3ccc(OC)c(OC)c3)C(=O)c3ccccc3C2=O)cc1` (stereo unspecified), the pEC50 is 4.90.

Consider `Cc1ccccc1NC(=O)CCC(=O)N/N=C/c1cc([N+](=O)[O-])ccc1O`, for which the negative logarithm of the EC50 (pEC50) was 4.71. Take `CCCCCCCNC(=O)C1(CC2CC(c3ccc(Cl)cc3)=NO2)CCNCC1` (stereo unspecified): the pEC50 was 5.25. Turning to `Cc1ccc(S(=O)(=O)/N=C2/C=C(Sc3ncn[nH]3)C(=O)c3ccccc32)cc1`, the pEC50 was 5.67. `CCOC(=S)SCC(=O)Nc1nc(-c2ccccc2)cs1`: the negative logarithm of the EC50 (pEC50) was 5.31. Turning to `CC(O)CNCCNCc1c(OCc2ccccc2)ccc2ccccc12` (stereo unspecified), the pEC50 is 4.85.

`C#CCOCCOCCOCCNc1nc(N2CCN(C(=O)CCCCCCCCCCNC(=O)[C@H](CO)n3cc(CCCCCN)nn3)CC2)nc(N2CCN(C(=O)CCCCCCCCCCNC(=O)[C@H](CCCN=C(N)N)n3cc(C[C@@H](C)CC)nn3)CC2)n1`: the negative logarithm of the EC50 (pEC50) was 5.05. Regarding `COc1ccc(N(C(=O)CCl)C(C(=O)NCCc2ccccc2)c2cccs2)cc1` (stereo unspecified), the negative-log EC50 (pEC50) is 5.46. `Cc1cc(/C=N/NC(=O)c2cccc([N+](=O)[O-])c2)c(C)n1-c1ccc(Cl)cc1Cl`: the pEC50 is 4.36. As for `O=C(Nc1cccc(N=Cc2cc(Br)cc(Br)c2O)c1)c1ccco1`, the figure is 4.41; as for `CC1CCCC(C)N1/N=C/c1c[nH]c2ccc(Br)cc12` (stereo unspecified), 4.84.

For `COc1cccc2[nH]c3c(N4CCN(Cc5ccc6c(c5)OCO6)CC4)ncnc3c12`, the negative logarithm of the EC50 (pEC50) is 4.32. With `COc1ccc(/C=C/C(=O)NC(=S)NNC(=O)c2cnccn2)cc1`, the negative logarithm of the EC50 (pEC50) is 5.69.

Consider `NC1=NC(=Nc2ccc(Br)cc2)c2ccccc21`, for which the negative logarithm of the EC50 (pEC50) is 4.59. As for `CC(C)NCCCOc1ccc(Cl)cc1Br`, the negative-log EC50 (pEC50) is 4.35. As to `NNC(=S)Nc1ccc(Cl)cc1`, the pEC50 was 4.32. As to `Cc1ccc(Nc2c3c(nc4ccccc24)CCC3)cc1`, the pEC50 was 4.91.

Take `O=C(N/N=C/C1C(c2ccccc2)C1(Cl)Cl)c1cccc(Cl)c1` (stereo unspecified): the pEC50 was 4.36. Regarding `O=c1c(Br)c(Br)cnn1-c1ccccc1`, the negative logarithm of the EC50 (pEC50) is 5.90. As for `O=C(CCN1CCc2ccccc2C(c2ccccc2)C1)c1ccc2c(c1)OCCO2` (stereo unspecified), the figure is 4.74. As to `Cc1cc(C2=NNC(=NC3CC3)SC2)c(C)n1-c1ccccc1`, the negative logarithm of the EC50 (pEC50) was 4.33.

For the compound `O=C(NC1CCCCC1)C(c1ccncc1)N(Cc1ccccc1)C(=O)c1ccc(-c2ccccc2)[nH]1` (stereo unspecified), the pEC50 was 4.65. Turning to `CC(=O)n1cc(/C=N/NC(=O)c2sc(C)nc2C)c2ccccc21`, the pEC50 is 4.94. Regarding `Cc1scc(C(=O)N/N=C/c2ccc([N+](=O)[O-])o2)c1C`, the negative logarithm of the EC50 (pEC50) was 4.70. With `Clc1c(OCCCn2ccnc2)ccc2ccccc12`, the negative-log EC50 (pEC50) is 4.45. As for `C#CCN1C(=O)C(O)(CC(=O)c2ccc(OC)c(OC)c2)c2ccccc21` (stereo unspecified), the negative-log EC50 (pEC50) is 4.52. With `CCOC(=O)Cn1nnnc1C(C(C)C)N(Cc1cccs1)Cc1cc2cc(C)ccc2[nH]c1=O` (stereo unspecified), the pEC50 was 4.98. In the case of `Cc1ccc2nc(NNC(=O)c3ccc(S(=O)(=O)N4CCc5ccccc5C4)cc3)sc2c1`, the pEC50 is 5.74.

As to `CN1C(=O)/C(=C/c2cccn2-c2ccc3ccccc3c2)C(=O)NC1=S`, the pEC50 is 4.78. In the case of `COc1ccc(OC)c(C2C=C(C34CC5CC(CC(C5)C3)C4)NC(=S)N2)c1` (stereo unspecified), the pEC50 was 4.30.

In the case of `C=CCNc1ncnc2c1[nH]c1ccc(Cl)cc12`, the negative-log EC50 (pEC50) was 4.91. Take `Clc1ccc(Cl)c(OCCCCNCc2ccccc2)c1`: the pEC50 was 4.56. Turning to `COc1ccc2c(c1)nc(N)n2Cc1ccccc1`, the pEC50 is 4.33. In the case of `CC[n+]1c(/C=C/c2ccc(N(C)C)cc2)ccc2ccccc21`, the pEC50 was 6.19. As for `CCNC(=S)NNC(=O)c1ccccn1`, the pEC50 is 4.59.

As for `O=c1c(Cl)c(Cl)cnn1Cc1ccccc1Cl`, the pEC50 is 5.53. As for `O=S(=O)(Nc1ccc2ccccc2c1)c1ccccc1`, the negative logarithm of the EC50 (pEC50) was 4.33. Next, `Oc1ccc(-c2n[nH]c(=S)n2-c2ccc3c(c2)OCCO3)c(O)c1`: 4.47; `CCCCCCCSc1cc(OC)c(CCNC)cc1OC`: 5.20. For the compound `COc1ccc(OC)c(C2=Nn3c(nnc3-c3cc(OC)c(OC)c(OC)c3)SC2)c1`, the pEC50 is 4.65. Regarding `COc1cccc(/C=N\NC(=O)Cn2nnc3ccccc32)c1O`, the negative logarithm of the EC50 (pEC50) is 4.96.

In the case of `Cc1ccc(Nc2cc(C)c3c(O)cccc3n2)cc1C`, the negative-log EC50 (pEC50) is 4.82.

Turning to `CC(C)CCNCC(O)CON=C1c2ccccc2-c2ccccc21` (stereo unspecified), the negative logarithm of the EC50 (pEC50) was 4.99. For the compound `O=C(Nc1cccc(Cl)c1)C1C2CCC3C(CCC21)C3(Cl)Cl` (stereo unspecified), the pEC50 is 4.57. As for `CNc1nc(-c2ccccn2)nnc1-c1ccccc1`, the figure is 5.08.

For the compound `CCCCCCCCCn1c2c(c(=N)c3c1CCC3)CCC2`, the pEC50 was 6.38. Regarding `O=C(N/N=C/c1sc2ccccc2c1O)c1cccc2ccccc12`, the negative logarithm of the EC50 (pEC50) is 5.45. For the compound `Cc1ccc(C(C[N+](=O)[O-])c2c(-c3ccccc3O)[nH][nH]c2=O)cc1` (stereo unspecified), the pEC50 was 4.56. For `C=CCc1ccccc1OCC(O)CN1CCN(CCN2C(=O)c3cccc4cccc(c34)C2=O)CC1` (stereo unspecified), the pEC50 is 4.77. As for `c1csc(C2Nc3cccc4cccc(c34)N2)c1`, the pEC50 is 4.31. `CC(C)[C@@H]1CC[C@@H](C)C[C@H]1OC(=O)C[n+]1cc(-c2ccc(Cl)cc2)n2c1CCCCC2`: the pEC50 is 5.64. Next, `O=c1[nH]c(NCc2ccco2)nnc1Cc1ccccc1Cl`: 5.18; `CCOC(=O)N1CCN(C(c2cccnc2)c2ccc3cccnc3c2O)CC1` (stereo unspecified): 5.03. Regarding `CCOC(=O)Cc1csc(NC(=O)NC2(C(F)(F)F)Oc3cc(Cl)c(Cl)cc3O2)n1`, the pEC50 was 4.58. As to `COc1ccc(Nc2sc(C(=O)Nc3cccc(Cl)c3)c(N)c2C(=O)Nc2ccccc2OC)cc1`, the pEC50 is 4.59. For the compound `Cc1ccc(NC(=O)NCC2CCN(Cc3cccc(Cl)c3)CC2)cc1Cl`, the pEC50 was 4.86. As for `CCCCCCCCCCOC(=O)Cn1c(COc2cccc(C)c2)[n+](C)c2ccccc21`, the negative-log EC50 (pEC50) is 5.36. Next, `O=C(N/N=C/c1cc(Cl)ccc1O)c1ccncc1`: 5.29; `Oc1c(CN2CCOCC2)cc(COCc2ccccc2)c2cccnc12`: 5.51. As for `CCCC(=O)NC(c1ccc(C)cc1)c1ccc2cccnc2c1O` (stereo unspecified), the pEC50 was 6.34.

For the compound `Cc1[nH]c2ccccc2c1/C=N/Nc1ccc(F)cc1F`, the pEC50 is 4.31.

Consider `Cc1cc(/C=N/n2cnnc2)c(C)n1-c1ccc(OCc2ccc(F)cc2)cc1`, for which the pEC50 was 4.90.

With `O=C1C(SCCO)=C(SCCO)C(=O)c2ccccc21`, the negative logarithm of the EC50 (pEC50) was 5.09. Next, `CCCOc1ccc(Br)cc1CSC(=N)N`: 5.27; `Cc1ccc(NC(=S)NC(NC(=O)c2ccco2)C(Cl)(Cl)Cl)cc1` (stereo unspecified): 4.71. Next, `COc1cccc(/C=N/n2c(C)nc3ccccc3c2=O)c1O`: 4.56; `CCCCCCCCCCCCCCCC[N+](C)(C)C`: 6.10. As to `O=C(CN1CC(c2ccccc2)CC1=O)N/N=C/c1cc(Br)ccc1O` (stereo unspecified), the pEC50 is 5.43.

Take `CC1CCC(C(C)C)C(OC(=O)Cn2c(COc3ccccc3)[n+](C)c3ccccc32)C1` (stereo unspecified): the pEC50 is 5.59.

As for `Nc1nonc1-n1nnc(C(=O)N/N=C/c2ccc(Br)cc2)c1CSC1=NCCS1`, the negative-log EC50 (pEC50) is 4.63. As for `O=C(CSc1nc(Nc2ccccc2)nc(N2CCOCC2)n1)Nc1ccc([N+](=O)[O-])cc1`, the pEC50 is 4.43. Take `O=c1[nH][nH]c(-c2ccccc2O)c1C(C[N+](=O)[O-])c1ccc(Br)cc1` (stereo unspecified): the pEC50 was 4.80.

Regarding `O=C(OCC1O[C@@H](OC(=O)c2cc(O)c(O)c(O)c2)[C@@H](OC(=O)c2cc(O)c(O)c(O)c2)[C@@H](OC(=O)c2cc(O)c(O)c(O)c2)[C@@H]1OC(=O)c1cc(O)c(O)c(O)c1)c1cc(O)c(O)c(O)c1` (stereo partly specified), the pEC50 is 4.86. As for `C=CS(=O)(=O)c1ccc(Oc2ccc(S(=O)(=O)C=C)cc2)cc1`, the figure is 5.85; as for `Cc1cc(Nc2ccccc2)nc2cc(O)ccc12`, 4.44; as for `O=[N+]([O-])c1ccc(NCCCNS(=O)(=O)c2ccccc2)c(Cl)c1`, 4.37.

Turning to `O=C(N/N=C/c1ccc(O)cc1O)C(=O)N/N=C/c1ccc(O)cc1O`, the negative-log EC50 (pEC50) is 5.16. Regarding `ON=C1/C(=N\O)CC2(C/C1=N/O)OCCO2`, the pEC50 was 4.46. Next, `CCC(C)(C)c1ccc(OCCCC[n+]2ccccc2)c(C(C)(C)CC)c1`: 5.92; `CCOC(=O)C[n+]1c(C)sc2ccc(OC)cc21`: 4.59; `C#CCOCCOCCOCCNc1nc(N2CCN(C(=O)CCCCCCCCCCNC(=O)[C@H]([C@@H](C)CC)n3cc(CCCCN=C(N)N)nn3)CC2)nc(N2CCN(C(=O)CCCCCCCCCCNC(=O)[C@H](CCCN=C(N)N)n3cc(C[C@@H](C)CC)nn3)CC2)n1`: 5.45. As for `C=COC(=O)CSc1snc(SCC(=O)OC)c1C#N`, the pEC50 is 4.49.

As to `Clc1ccc(Nc2ccc(NCc3ccccc3)nn2)cc1`, the negative-log EC50 (pEC50) was 4.67.

In general, pEC50 refers to the EC50 on a negative log10 scale, so that one unit is a factor of ten.
